Test results as given in patent US6458387B1, “Sustained release microspheres” (priority 1999, dated 2002).

Columns and labels:
[1] = HSA microspheres, carbonyl diimidazole coupling
Experimental: Carbonyl diimidazole (100 mg, Sigma Chemical Co., St. Louis, Mo.) was added to a solution of 36 mg of the antiviral drug Virazole Registered TM (ICN Pharmaceuticals, Inc., Costa Mesa, Calif.) in 0.2 ml of dimethylformamide (DMF). The resulting mixture was allowed to stand at room temperature for four hours. To the mixture was added a mixture of 0.2 ml of human serum albumin (HSA) (25%, Armour Pharmaceutical Co., Collegeville, Pa.) and 0.4 ml of deionized water. The mixture was incubated for 30 minutes at room temperature, for 30 minutes at 37° C., and for 30 minutes at 58° C. and then cooled to room temperature. Particles were isolated by centrifugation, washed with deionized water three times and resuspended in 20 ml of water.

[2] = In vitro release from leuprolide acetate/HSA microspheres (Example 5); format: physicochemical; settings: leuprolide acetate/HSA/dextran sulfate/PEG/PVP microspheres
Experimental: A 0.010 mL aliquot of a solution of 10-100 mg/mL leuprolide acetate in water (LHRH, TAP Pharmaceuticals, Deerfield, Ill.) was added to 0.168 mL of a 2-10% (weight/volume) solution of dextran sulfate in water (average molecular weight 500 kDa), and the solution was thoroughly mixed. To the leuprolide/dextran solution was added a 0.856 niL aliquot of a solution containing 25% (weight/volume) polyethylene glycol, having an average molecular weight of 3.35 kDa (Spectrum, Gardena, Calif.), and 25% (weight/volume) polyvinylpyrrolidone, having an average molecular weight of 40 kDa, in an aqueous solution of 0.1M sodium acetate, pH 5.5. The resulting solution was thoroughly mixed and allowed to stand for up to 30 minutes. A 0.25 mL aliquot of a 20% (weight/volume) solution of human serum albumin (Sigma Chemical Co., St. Louis, Mo.) in water was then added to the solution. The final solution was thoroughly mixed and placed in a water bath at between 70° C. and 90° C. for a period of time between 30 minutes and 3 hours.
In vitro release of leuprolide acetate was measured by centrifugation of microspheres and resuspension in a phosphate buffered saline release medium.

[3] = set-up: species or system dogs; settings: dog
Experimental: The microspheres were formed and precipitated from solution. […] Estradiol was then loaded into human serum albumin microspheres at 3 different weight percent loadings. The estradiol was dissolved in ethyl alcohol and incubated in the presence of the albumin microspheres. […] The 10% by weight estradiol containing microspheres contained 1 mg of estradiol and 8.33 mg of Human Serum Albumin (HSA). The 49% by weight estradiol containing microspheres contained 8.15 mg of estradiol and 8.33 mg of HSA. The 77% by weight estradiol containing microspheres contained 27.68 mg of estradiol and 8.33 mg of HSA
The microspheres were injected into five dogs and the resulting serum concentrations were determined by radioimmuno assay for estradiol.

[4] = human serum albumin microspheres; 0.01M, 0.1M or 1M zinc sulfate
Experimental: Nafarelin acetate (Roche Laboratories, Nutley, N.J.) was dissolved in deionized water to produce a 10 mg/ml solution.
To 1 mg of nafarelin acetate was added 10 mg of the human serum albumin microspheres. The mixture was vortexed and mixed for 16 hours at 4° C. A 3M ammonium sulfate solution was added to the mixture to a final concentration of 0.5M and vortexed and mixed for 15 minutes at ambient temperature.
The mixtures were centrifuged, supernatant decanted and pellet resuspended in deionized water three times to wash the microspheres.

Row | SMILES | percentage of drug incorporated into the particles [1] | effect of additive on release of protein and peptide from the microspheres [2] | also measured
1 | CO[C@H]1/C=C/O[C@@]2(C)Oc3c(C)c(O)c4c(O)c(c(/C=N/N5CCN(C)CC5)c(O)c4c3C2=O)NC(=O)/C(C)=C\C=C\[C@H](C)[C@H](O)[C@@H](C)[C@@H](O)[C@@H](C)[C@H](OC(C)=O)[C@@H]1C [Rifampicin TM, 3-[4-methylpiperazinyliminomethyl] rifamycin] | greater than 6.8% |  | 
2 | NC(=O)c1ncn([C@@H]2O[C@H](CO)[C@@H](O)[C@H]2O)n1 [Virazole Registered TM] | 10% |  | 
3 | CCCCCCCC(=O)O [caprylic acid] |  | retarded the release | 
4 | C[C@]12CC[C@@H]3c4ccc(O)cc4CC[C@H]3[C@@H]1CC[C@@H]2O [estradiol control, estradiol] |  |  | half life of estradiol in vivo [3]: shortest half life
5 | O=S(=O)([O-])[O-].[Zn+2] [zinc sulfate] |  | retarded the release | effect of additive on rate of release of nafarelin acetate [4]: reduced the rate of release
